Consider three compounds from patent US7001616B2, “Microspheres for use in the treatment of cancer” (University of Florida, priority 1998, dated 2006).

Common to all, as to type: physicochemical
Data set [1] in a line: In vitro doxorubicin release from microspheres in buffer. Conditions: pH 6.75; 50/49/1 microspheres. As for the experimental part: Doxorubicin Release. The doxorubicin release experiments were carried out in the same manner as the FUDR and dye release. 150 mg of 50–80 μm diameter microspheres were cleaned and immersed in 1 ml of methanol containing 5 mg of the drug for 24 hours and the methanol was allowed to evaporate slowly under the hood. The loaded microspheres were cleaned and dried and 10 mg samples were placed into 20 ml glass vials (Fisher Scientific). 15 ml of citric acid buffer was placed into each vial such that there were three samples each at pH values of 6.6, 6.75, and 6.9. Drug release at pH 7.4 was performed using 15 ml potassium phosphate buffer added to each of the remaining three vials. Drug release was measured spectrophotometrically at 479 nm.

The nature of data set [2]: Total percent loading of microspheres with FUDR. Particulars: 5 mg/ml FUDR in methanol; 50/49/1 microspheres, 50–80 μm. As to the method: (§1) Initial FUDR Test. 150 mg of 50–80 μm diameter EMA/DEA/DVB (in a ratio of 50/49/1) microspheres were washed twice with methanol, dried and then immersed in 1 ml of methanol containing 5 mg FUDR. After 24 hours the methanol was allowed to evaporate and the loaded spheres were dispersed in 50 ml of distilled water and centrifuged repeatedly for 10 cycles. The spheres were collected and allowed to dry in a cone filter under the hood for 24 hours. 10 mg of the loaded spheres were placed in each of two separate vials containing either 15 ml of pH 6.8 citric acid buffer (0.05 M I=0.3) or pH 7.4 potassium phosphate monobasic-NaOH buffer (0.05M, Fisher Scientific). Each vial was agitated by hand daily and a total of 5 samples (5 ml each) were taken over a 14 day period and measured spectrophotometrically at 268 nm to determine the FUDR concentration in solution. Each sample was replaced using fresh buffer. The total percent loading was determined by the same process after placing a 10 mg sample of spheres into 15 ml of pH 4.0 citric acid buffer for 24 hours.

Data set [3] can be described thus: In vitro FUDR release from microspheres in buffer. Conditions: 50/49/1 microspheres. As to the method:
as §1
Follow-up FUDR Release. […] Sample volumes of 5 ml and 3 ml were taken from the pH 6.6 and 6.9 buffers, respectively.

A short description of data set [4]: Total percent loading of microspheres with test dye. Particulars: 9-aminoacridine, 100 mg per ml of methanol; spheres from suspension polymerization. As for the experimental part:
(§2) All four compositions produced in Example 1 were tested for release properties using 9-aminoacridine (Aldrich) (free from HCl) as a test dye. A 100–150 mg sample of each composition (from the 50–80 μm size group) was first washed twice with methanol, allowed to dry, and then immersed in a saturated solution of 9-aminoacridine in methanol (10 wt %) for 24 hours. The methanol was allowed to evaporate (usually for 24 hours) and the microspheres were washed by a repeated process of suspension and centrifuging (Adams Dynac centrifuge) in fresh neutral pH water (at least 10 cycles). The loaded spheres were collected in a paper filter cone and dried in an oven at 60° C. under vacuum.
For each composition, 5 mg of dye-loaded spheres were placed in glass vials (Fisher 20 ml scintillation vials) containing 15 ml of citric acid buffer (0.05 M, I=0.3) at pH 6.0, 6.5, and 6.8. The buffer solutions consisted of citric acid (anhydrous, Fisher Scientific), NaOH (Fisher Scientific), deionized water, and NaCl (Aldrich). A total of three samples were used from each composition at each pH value to account for error involved with the weighing of the microspheres. At least five samples (5 ml each) were taken from each vial over a 14 day period and the concentration of dye released was determined spectrophotometrically at 400 nm using a Perkin-Elmer Lambda 3B UV/VIS spectrophotometer. […]

A short description of data set [5]: Release of test dye from microspheres in buffer over 14 days. As to the method:
as §2
[…] […] A total of three samples were used from each composition at each pH value to account for error involved with the weighing of the microspheres. At least five samples (5 ml each) were taken from each vial over a 14 day period and the concentration of dye released was determined spectrophotometrically at 400 nm using a Perkin-Elmer Lambda 3B UV/VIS spectrophotometer. Each sample was replaced with fresh buffer solution. A 5 mg sample of each composition was also placed into 15 ml of pH 2.5 citric acid buffer (0.05 M) for 24 hours to determine the total percent loading (mg dye released/mg loaded spheres) for the microspheres.

Structures can show the parent of a compound that is named as a salt.

On to `COc1cccc2c1C(=O)c1c(O)c3c(c(O)c1C2=O)C[C@@](O)(C(=O)CO)C[C@@H]3O[C@H]1C[C@H](N)[C@H](O)[C@H](C)O1` [doxorubicin, hydroxydaunomycin hydrochloride], for which the “doxorubicin release over two week period” value in data set [1] was 75%.

Turning to `O=c1[nH]c(=O)n([C@H]2C[C@H](O)[C@@H](CO)O2)cc1F` [FUDR, fluorodeoxyuridine], the FUDR loading level in data set [2] was determined as 1.4 weight percentage. Also, the “FUDR release over 14 day period” value in data set [3] (pH 6.8) amounted to 80%. The “FUDR 14 day release” value in data set [3] (pH 6.9) is 55%. Moreover, the FUDR release result in data set [3] (pH 7.4) is listed as “over 10%”.

With `Nc1c2ccccc2nc2ccccc12` [test dye, 9-aminoacridine], the “dye loading as restated in text” value in data set [4] was “about 15%”. The “test dye release after 14 days” value is 76% in data set [5] (pH 6.8 citric acid buffer) and 63% in data set [5] (pH 6.9 citric acid buffer). In data set [5] (pH 7.4 potassium phosphate monobasic-NaOH buffer), the “test dye release after two weeks” value is reported as “over 10%”.
